# From patent US20090012170A1, “TREATMENT OF SYMPTOMS OF MOTOR DYSFUNCTION” (priority 2005, published 2009)
# Tested on: PD patients
# Assay: Pooled analysis of three double blind, placebo-controlled studies and their open-label extensions: earlier vs. delayed start of entacapone adjunct to levodopa/DDC inhibitor
# Type: in vivo, human
# Protocol: A study was carried out to evaluate the effect of earlier vs. delayed start of entacapone adjunct to traditional levodopa/DDC inhibitor treatment on the long-term Parkinson's disease symptom control up to 5 years.
# Analysis of pooled data of three pivotal double blind, placebo-controlled studies, and their respective long-term open-label extension studies up to 5 years on entacapone adjunct to optimised levodopa/DDC inhibitor and other PD treatment.
# A total of 488 PD patients, of whom 269 were on entacapone and 219 on placebo during the 6-month double blind phase, continued with open entacapone treatment in the long-term extension phases up to 5 years. UPDRS III assessment and the mean daily levodopa dose were reported until the point when a minimum of 10 patients in each treatment arm was available, i.e. up to five years.
structure (smiles),measurement,setting,value
"CCN(CC)C(=O)/C(C#N)=C/c1cc(O)c(O)c([N+](=O)[O-])c1 [entacapone, (E)-2-cyano-3-(3,4-dihydroxy-5-nitrophenyl)-N-diethyl-2 propenamide]",decrease of mean daily levodopa dose after initiation of open entacapone,"delayed start group, comparable with the decrease in the earlier start group at the beginning of the double-blind phase, thereafter below baseline in both groups",about 70 mg
same,mean difference in UPDRS III over time between the earlier and delayed start treatment groups,"entacapone adjunct to levodopa/DDC inhibitor, earlier vs 6 months delayed start, up to 5 years, 95%CI [−3.01, −0.31], repeated measures analysis, p<0.05",−1.66
